Measured values taken from ChEMBL document CHEMBL5579878, “Allosteric Activation of Protein Phosphatase 5 with Small Molecules” (J Med Chem, 2024).

Legend:
[1] = target: T1, Serine/threonine-protein phosphatase 5 (Homo sapiens) (UniProt P53041); assay: Activation of His-tagged human PP5 extracted from Escherichia coli BL21 using pNPP as substrate assessed as fold increase in phosphatase activity at 50 uM incubated for 30 mins by spectrophotometric analysis
T1 sequence (whole entry): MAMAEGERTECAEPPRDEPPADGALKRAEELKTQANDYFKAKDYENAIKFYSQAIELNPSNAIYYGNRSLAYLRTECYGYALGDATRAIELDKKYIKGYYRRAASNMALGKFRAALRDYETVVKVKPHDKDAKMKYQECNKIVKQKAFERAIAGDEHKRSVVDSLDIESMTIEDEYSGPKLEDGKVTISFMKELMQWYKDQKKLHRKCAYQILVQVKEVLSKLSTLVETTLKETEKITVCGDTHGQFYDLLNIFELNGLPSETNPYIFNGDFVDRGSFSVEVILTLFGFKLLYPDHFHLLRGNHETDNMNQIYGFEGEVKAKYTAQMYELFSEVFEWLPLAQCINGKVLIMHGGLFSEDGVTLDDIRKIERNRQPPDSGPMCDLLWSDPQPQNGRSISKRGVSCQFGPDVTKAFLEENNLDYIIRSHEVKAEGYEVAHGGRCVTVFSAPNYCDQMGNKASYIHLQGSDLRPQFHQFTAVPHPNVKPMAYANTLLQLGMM

[2] = target: T1, Serine/threonine-protein phosphatase 5 (Homo sapiens); assay: Activation of His-tagged human PP5 extracted from Escherichia coli BL21 using pNPP as substrate assessed as fold change in maximum activation upto 300 uM incubated for 30 mins by spectrophotometric analysis; conditions: filed as activator
[3] = target: T1, Serine/threonine-protein phosphatase 5 (Homo sapiens); assay: Activation of His-tagged human PP5 extracted from Escherichia coli BL21 using pNPP as substrate assessed as increase in phosphatase activity incubated for 30 mins by spectrophotometric analysis; conditions: filed as activator
HCT-116 [4] = assay: Heat shock toxicity in human HCT-116 cells assessed as increase in HSP27 mRNA expression at 10 to 100 nM incubated for 24 hrs by qRT-PCR analysis; assay type: cell-based; conditions: hct-116, 24 h, 0.1 µM, dose 10-100 nM
HCT-116 [5] = assay: Heat shock toxicity in human HCT-116 cells assessed as increase in HSP70 protein expression at 3 to 100 nM incubated for 24 hrs by Western blot analysis; assay type: cell-based; conditions: hct-116, 24 h, 0.1 µM, dose 3-100 nM
HCT-116 [6] = assay: Heat shock toxicity in human HCT-116 cells assessed as increase in HSP40 mRNA expression at 10 to 100 nM incubated for 24 hrs by qRT-PCR analysis; assay type: cell-based; conditions: hct-116, 24 h, 0.1 µM, dose 10-100 nM
[7] = Toxicity in BALB/c nude mouse xenografted with human HCT-116 cells assessed as body weight loss at 20 mg/kg, ip administered every other day for 14 days; assay type: organism-based; conditions: in vivo, 336 h, time 14 day
HCT-116 [8] = assay: Antiproliferative activity against human HCT-116 cells assessed as inhibition of cell proliferation incubated for 72 hrs by CCK8 assay; assay type: functional, cell-based; conditions: HCT-116, 72 h
HCT-116 [9] = assay: Heat shock toxicity in human HCT-116 cells assessed as increase in HSP40 protein expression at 3 to 100 nM incubated for 24 hrs by Western blot analysis; assay type: cell-based; conditions: hct-116, 24 h, 0.1 µM, dose 3-100 nM
SW-620 = assay: Antiproliferative activity against human SW620 cells assessed as inhibition of cell proliferation incubated for 72 hrs by CCK8 assay; assay type: functional, cell-based; conditions: SW-620, 72 h
HCT-116 [10] = assay: Heat shock toxicity in human HCT-116 cells assessed as increase in HSP70 mRNA expression at 10 to 100 nM incubated for 24 hrs by qRT-PCR analysis; assay type: cell-based; conditions: hct-116, 24 h, 0.1 µM, dose 10-100 nM
HCT-116 [11] = assay: Heat shock toxicity in human HCT-116 cells assessed as increase in HSP27 protein expression at 3 to 100 nM incubated for 24 hrs by Western blot analysis; assay type: cell-based; conditions: hct-116, 24 h, 0.1 µM, dose 3-100 nM
[12] = target: T2, Serine/threonine-protein phosphatase 5 (Homo sapiens, UniProt P53041); assay: Inhibition of DDO-3733 preincubated human PP5 phosphatase domain extracted from Escherichia coli BL21 using pNPP as substrate incubated for 30 mins by spectrophotometric analysis
T2 sequence (P53041 whole entry): T1 sequence (whole entry)

[13] = target: T2, Serine/threonine-protein phosphatase 5; assay: Inhibition of human PP5 phosphatase domain extracted from Escherichia coli BL21 using pNPP as substrate incubated for 30 mins by spectrophotometric analysis
[14] = target: T1, Serine/threonine-protein phosphatase 5 (Homo sapiens); assay: Activation of His-tagged human PP5 extracted from Escherichia coli BL21 using pNPP as substrate assessed as fold increase in phosphatase activity at 200 uM incubated for 30 mins by spectrophotometric analysis; conditions: filed as activator

SMILES	fold change (FC) [1]	fold change (FC) ([1]; filed as activator)	also measured
N=c1oc2ccc(F)cc2cc1C(N)=S	< 1.5		
N=c1oc2c(Cl)cc(Cl)cc2cc1C(N)=S	< 1.5		
COc1cccc2oc(=N)c(C(N)=S)cc12	< 1.5		
N=c1oc2cc(F)cc(F)c2cc1C(N)=O	< 1.5		
N=c1oc2cc(Br)ccc2cc1C(N)=S		2.1	fold change (FC) [2]: 4; Activity [3]: Dose-Dependent Effect
NC(=S)C1=Cc2cc(F)cc(F)c2OC1N (stereo not drawn)		1.8	
CC(C)c1cc(C(=O)N2Cc3ccc(CN4CCN(C)CC4)cc3C2)c(O)cc1O [ONALESPIB]			Activity (HCT-116 [4]): Toxic; Activity (HCT-116 [5]): Toxic; Activity (HCT-116 [6]): Toxic; Activity [7]: Non-Toxic; IC50 (HCT-116 [8]): 0.0785 µM; Activity (HCT-116 [9]): Toxic; IC50 (SW-620): 0.122 µM; Activity (HCT-116 [10]): Toxic; Activity (HCT-116 [11]): Toxic
CO/N=c1/oc2c(F)cc(F)cc2cc1C(N)=S	< 1.5		
CN1CCN(C(=O)C2C(C(=O)O)[C@H]3CC[C@@H]2O3)CC1 (stereo partly drawn) [LB-100]			IC50 [12]: 21.1 µM; IC50 [13]: 22.1 µM
COc1ccc2cc(C(N)=S)c(=N)oc2c1		1.6	
N=c1oc2c(F)cc(F)cc2cc1C(=S)NC=O		2.1	
N=c1oc2ccc(O)cc2cc1C(N)=S		1.9	
N=c1oc2c(F)cc(F)cc2cc1C(N)=S		2.1	
COc1ccc2oc(=N)c(C(N)=S)cc2c1		1.9	fold change (FC) [14]: 3.4; Activity [3]: Dose-Dependent Effect
N=c1oc2cc([N+](=O)[O-])ccc2cc1C(N)=S	< 1.5		
N=c1oc2cc(F)c(F)cc2cc1C(N)=S		1.7	
Cc1ccc2oc(=N)c(C(N)=S)cc2c1		1.6	
N=c1oc2cccc(F)c2cc1C(N)=S		1.6	
N=c1oc2cc(O)ccc2cc1C(N)=S		2.4	
N=c1oc2c(F)ccc(F)c2cc1C(N)=S		1.8	
N=c1oc2cc(F)ccc2cc1C(N)=S		1.7	
N=c1oc2c(Br)cc(Br)cc2cc1C(N)=S		2.6	
N=c1oc2ccccc2cc1C(N)=S		1.8	
COc1cc(Br)cc2cc(C(N)=S)c(=N)oc12		2.1	
N=c1oc2cccc(Br)c2cc1C(N)=S	< 1.5		
C/N=c1/oc2c(F)cc(F)cc2cc1C(N)=S	< 1.5		
COc1cccc2cc(C(N)=S)c(=N)oc12	< 1.5		
N=c1oc2c(F)cccc2cc1C(N)=S	< 1.5		
N=c1oc2ccc3ccccc3c2cc1C(N)=S		1.6	
N=c1oc2c(F)cc(F)cc2cc1C(N)=O	< 1.5		
